# Structures can show the parent of a compound that is named as a salt.
# Target: hNav1.7 (Homo sapiens (Human), UniProt Q15858)
# Assay: Tritiated sulfonamide competitive binding to membranes from cells expressing hNav1.7 and the β1 subunit;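 note: Filter-bound radioactivity counted by liquid scintillation, nonspecific binding defined with excess unlabelled ligand, IC50 fitted to percent inhibition of specific binding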
# Details: not given
# Sequence of hNav1.7 (Q15858 other isoform, or with tags, fused parts or gaps): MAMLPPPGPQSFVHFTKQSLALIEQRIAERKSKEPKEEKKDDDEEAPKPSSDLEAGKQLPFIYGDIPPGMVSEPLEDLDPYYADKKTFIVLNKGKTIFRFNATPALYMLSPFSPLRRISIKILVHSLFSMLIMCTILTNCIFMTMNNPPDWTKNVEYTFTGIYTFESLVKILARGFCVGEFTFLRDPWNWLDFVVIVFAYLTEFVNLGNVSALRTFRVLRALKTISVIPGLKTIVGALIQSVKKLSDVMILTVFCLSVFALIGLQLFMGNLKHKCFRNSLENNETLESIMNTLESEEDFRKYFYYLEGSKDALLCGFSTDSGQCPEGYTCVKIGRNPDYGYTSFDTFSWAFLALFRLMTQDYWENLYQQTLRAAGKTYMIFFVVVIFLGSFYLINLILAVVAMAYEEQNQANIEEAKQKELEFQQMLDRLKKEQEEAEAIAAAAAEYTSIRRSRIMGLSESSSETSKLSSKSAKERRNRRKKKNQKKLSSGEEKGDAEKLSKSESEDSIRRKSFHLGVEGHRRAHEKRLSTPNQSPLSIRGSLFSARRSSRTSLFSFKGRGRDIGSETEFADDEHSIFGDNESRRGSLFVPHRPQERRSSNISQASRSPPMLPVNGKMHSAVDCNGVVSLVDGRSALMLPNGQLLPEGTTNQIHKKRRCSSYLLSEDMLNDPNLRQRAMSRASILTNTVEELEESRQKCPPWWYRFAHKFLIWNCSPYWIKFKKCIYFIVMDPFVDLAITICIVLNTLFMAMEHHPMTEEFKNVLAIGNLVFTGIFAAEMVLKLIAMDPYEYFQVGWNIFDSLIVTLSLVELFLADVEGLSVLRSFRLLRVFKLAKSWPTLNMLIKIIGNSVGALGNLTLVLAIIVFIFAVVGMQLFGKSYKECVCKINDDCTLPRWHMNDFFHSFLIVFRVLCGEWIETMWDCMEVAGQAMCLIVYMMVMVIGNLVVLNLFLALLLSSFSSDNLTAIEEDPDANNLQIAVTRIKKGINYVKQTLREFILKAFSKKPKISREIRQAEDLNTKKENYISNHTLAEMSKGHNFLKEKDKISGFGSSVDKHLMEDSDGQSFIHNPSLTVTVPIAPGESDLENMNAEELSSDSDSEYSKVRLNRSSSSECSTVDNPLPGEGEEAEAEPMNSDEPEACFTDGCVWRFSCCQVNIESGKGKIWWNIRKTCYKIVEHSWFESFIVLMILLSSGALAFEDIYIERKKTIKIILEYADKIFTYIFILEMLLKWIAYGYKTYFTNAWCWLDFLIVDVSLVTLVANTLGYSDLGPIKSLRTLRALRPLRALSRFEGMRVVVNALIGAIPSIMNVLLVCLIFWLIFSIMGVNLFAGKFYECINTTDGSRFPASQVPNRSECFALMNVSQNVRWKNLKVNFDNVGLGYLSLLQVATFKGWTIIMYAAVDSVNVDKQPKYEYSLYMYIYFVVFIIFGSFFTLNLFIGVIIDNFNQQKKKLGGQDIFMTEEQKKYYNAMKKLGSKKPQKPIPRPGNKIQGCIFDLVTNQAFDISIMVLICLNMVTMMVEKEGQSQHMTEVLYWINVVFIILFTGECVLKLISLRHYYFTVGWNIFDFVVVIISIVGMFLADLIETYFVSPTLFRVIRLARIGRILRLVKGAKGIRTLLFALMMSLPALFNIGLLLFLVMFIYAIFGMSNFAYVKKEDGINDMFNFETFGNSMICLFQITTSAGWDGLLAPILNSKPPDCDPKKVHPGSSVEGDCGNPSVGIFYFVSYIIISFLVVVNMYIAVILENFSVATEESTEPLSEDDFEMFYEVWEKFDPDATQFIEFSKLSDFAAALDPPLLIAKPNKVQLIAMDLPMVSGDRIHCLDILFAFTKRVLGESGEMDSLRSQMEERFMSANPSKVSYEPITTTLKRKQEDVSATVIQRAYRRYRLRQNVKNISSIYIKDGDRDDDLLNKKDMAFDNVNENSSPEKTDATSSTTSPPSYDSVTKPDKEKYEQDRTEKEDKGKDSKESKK
# Sequence of hNav1.7 (Q07699 19-218 partner): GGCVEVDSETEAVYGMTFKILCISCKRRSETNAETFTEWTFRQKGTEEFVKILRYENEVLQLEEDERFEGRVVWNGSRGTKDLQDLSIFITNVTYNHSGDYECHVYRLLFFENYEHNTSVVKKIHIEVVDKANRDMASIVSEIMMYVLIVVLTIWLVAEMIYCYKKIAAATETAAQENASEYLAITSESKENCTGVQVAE
row,Compound,IC50 [nM]
1,"O=C(NS(=O)(=O)N1CCC1)c1cc(C2CC2)c(O[C@@H]2CCCN(c3ccc(F)cc3)C2)cc1F [Example 37, (R)—N-(azetidin-1-ylsulfonyl)-5-cyclopropyl-2-fluoro-4-((1-(4-fluorophenyl)piperidin-3-yl)oxy)benzamide, trifluoroacetic acid salt]",15.1
2,"O=C(NS(=O)(=O)C1CC1)c1cc(C2CC2)c(O[C@@H]2CCCN(Cc3ccc(F)cc3)C2)cc1F [Example 21, (R)-5-cyclopropyl-N-(cyclopropylsulfonyl)-2-fluoro-4-((1-(4-fluorobenzyl)piperidin-3-yl)oxy)benzamide]",11.2
3,"O=C(NS(=O)(=O)N1CCC1)c1cc(C2CC2)c(O[C@@H]2CCCN(Cc3ccc(Cl)c(Cl)c3)C2)cc1F [Example 19, (R)—N-(azetidin-1-ylsulfonyl)-5-cyclopropyl-4-((1-(3,4-dichlorobenzyl)piperidin-3-yl)oxy)-2-fluorobenzamide]",4.9
4,"Cc1ccc(CN2CCC[C@@H](Oc3cc(F)c(C(=O)NS(=O)(=O)C4CC4)cc3C3CC3)C2)cc1 [Example 32, (R)-5-cyclopropyl-N-(cyclopropylsulfonyl)-2-fluoro-4-((1-(4-methylbenzyl)piperidin-3-yl)oxy)benzamide]",5.4
5,"Cc1ccc(CN2CCC[C@@H](Oc3cc(F)c(C(=O)NS(=O)(=O)N4CCC4)cc3C3CC3)C2)cc1 [Example 33, (R)—N-(azetidin-1-ylsulfonyl)-5-cyclopropyl-2-4-fluoro-((1-(4-methylbenzyl)piperidin-3-yl)oxy)benzamide]",13.2
6,"CS(=O)(=O)NC(=O)c1cc(C2CC2)c(O[C@@H]2CCCN(Cc3ccc(F)cc3C(F)(F)F)C2)cc1F [Example 34, (R)-5-cyclopropyl-2-fluoro-4-((1-(4-fluoro-2-(trifluoromethyl)benzyl)piperidin-3-yl)oxy)-N-(methylsulfonyl)benzamide]",1.9
7,"O=C(NS(=O)(=O)C1CC1)c1cc(C2CC2)c(CN2CCC([S+]([O-])c3cc(Cl)cc(Cl)c3)CC2)cc1F (stereo not shown) [Example 535, 5-cyclopropyl-N-(cyclopropylsulfonyl)-4-((4-((3,5-dichlorophenyl)sulfinyl)piperidin-1-yl)methyl)-2-fluorobenzamide, trifluoroacetic acid salt]",720

# Same assay, conditions: read-out: Ligand Binding Assay; 100 pM [3H]compound, membranes with hNav1.7 and β1 subunit, 18 h, room temperature
row,Compound,IC50 [nM]
1,"O=C(NS(=O)(=O)C1CC1)c1cc(C2CC2)c(OCC2CCN(C3(c4cc(Cl)cc(Cl)c4)COC3)CC2)cc1F [Example 175, 5-Cyclopropyl-N-(cyclopropylsulfonyl)-4-((1-(3-(3,5-dichlorophenyl)oxetan-3-yl)piperidin-4-yl)methoxy)-2-fluorobenzamide]",5.2
2,CC(C)N(C(=O)CN1CCC[C@@H](Oc2cc(F)c(C(=O)NS(C)(=O)=O)cc2C2CC2)C1)C(C)C [Example 179],1800
3,"CS(=O)(=O)NC(=O)c1cc(Cl)c(OCC2CN(C(c3ccccc3)c3ccccc3)C2)cc1F [Example 59, 4-((1-benzhydrylazetidin-3-yl)methoxy)-5-chloro-2-fluoro-N-(methylsulfonyl)benzamide]",76
4,"O=C(NS(=O)(=O)C1CC1)c1cc(C2CC2)c(OCC2CCN(S(=O)(=O)c3ccccc3C(F)(F)F)CC2)cc1F [Example 371, 5-cyclopropyl-N-(cyclopropylsulfonyl)-2-fluoro-4-((1-((2-(trifluoromethyl)phenyl)sulfonyl)piperidin-4-yl)methoxy)benzamide]",20.3
5,"COC[C@@H](c1cc(Cl)cc(Cl)c1)N1CCC(COc2cc(F)c(C(=O)NS(=O)(=O)N3CCC3)cc2C2CC2)CC1 (single isomer, unassigned) [Example 166]",3.9
6,"CS(=O)(=O)NC(=O)c1cc(C2CC2)c(CN2CCO[C@H](Cc3ccc(Cl)c(Cl)c3)C2)cc1F [Example 458, (R)-5-cyclopropyl-4-((2-(3,4-dichlorobenzyl)morpholino)methyl)-2-fluoro-N-(methylsulfonyl)benzamide]",4.4
7,"C[C@@H](c1ccc(Cl)cc1Cl)N1CCC(COc2cc(F)c(C(=O)NS(C)(=O)=O)cc2C2CC2)CC1 [Example 238, (S)-5-cyclopropyl-4-((1-(1-(2,4-dichlorophenyl)ethyl)piperidin-4-yl)methoxy)-2-fluoro-N-(methylsulfonyl)benzamide]",2.2
8,"CS(=O)(=O)NC(=O)c1cc(C2CC2)c(OCC2CCN(C(c3cc(Cl)cc(Cl)c3)C(F)(F)F)CC2)cc1F (stereo not shown) [Example 299, 5-cyclopropyl-4-((1-(1-(3,5-dichlorophenyl)-2,2,2-trifluoroethyl)piperidin-4-yl)methoxy)-2-fluoro-N-(methylsulfonyl)benzamide]",1.9
9,"CS(=O)(=O)NC(=O)c1cc(C2CC2)c(OCC2CC3CCC(C2)N3Cc2cc(Cl)cc(Cl)c2)cc1F [Example 449, 5-cyclopropyl-4-(((1R,3R,5S)-8-(3,5-dichlorobenzyl)-8-azabicyclo[3.2.1]octan-3-yl)methoxy)-2-fluoro-N-(methylsulfonyl)benzamide]",17.1
10,CS(=O)(=O)NC(=O)c1cc(C2CC2)c(OCC2CN([C@H](c3ccccc3)c3cc(Cl)cc(Cl)c3)C2)cc1F [Example 143],2.6
11,"CC(C)c1nc(CN2CCC(COc3cc(F)c(C(=O)NS(=O)(=O)C4CC4)cc3C3CC3)CC2)cs1 [Example 355, 5-cyclopropyl-N-(cyclopropylsulfonyl)-2-fluoro-4-((1-((2-isopropylthiazol-4-yl)methyl)piperidin-4-yl)methoxy)benzamide trifluoroacetic acid salt]",119
12,"C[C@H](c1ccc(OC(F)(F)F)cc1)N1CCC(C)(COc2cc(F)c(C(=O)NS(C)(=O)=O)cc2C2CC2)CC1 (single isomer, unassigned) [Example 249]",39
13,"CS(=O)(=O)NC(=O)c1cc(C2CC2)c(OCC2CCN(Cc3ccc(C(F)(F)F)c(Cl)c3)CC2)cc1F [Example 220, 4-((1-(3-Chloro-4-(trifluoromethyl)benzyl)piperidin-4-yl)methoxy)-5-cyclopropyl-2-fluoro-N-(methylsulfonyl)benzamide]",17
14,"O=C(NS(=O)(=O)C1CC1)c1cc(C2CC2)c(OCC2CCN(S(=O)(=O)C3CCOCC3)CC2)cc1F [Example 377, 5-cyclopropyl-N-(cyclopropylsulfonyl)-2-fluoro-4-((1-((tetrahydro-2H-pyran-4-yl)sulfonyl)piperidin-4-yl)methoxy)benzamide]",1260
15,"COC[C@H](c1ccc(F)c(Cl)c1)N1CCC(COc2cc(F)c(C(=O)NS(C)(=O)=O)cc2C2CC2)CC1 (single isomer, unassigned) [Example 182]",14
16,"C[C@H](c1cc(Cl)cc(Cl)c1)N1CCC(COc2cc(F)c(C(=O)NS(C)(=O)=O)cc2C2CC2)CC1 [Example 99, (R)-5-Cyclopropyl-4-((1-(1-(3,5-dichlorophenyl)ethyl)piperidin-4-yl)methoxy)-2-fluoro-N-(methylsulfonyl)-benzamide]",3.89
17,"O=C(NS(=O)(=O)C1CC1)c1cc(C2CC2)c(OCC2CCN(C(=O)c3ccc(Cl)c(Cl)c3)CC2)cc1F [Example 233, 5-Cyclopropyl-N-(cyclopropylsulfonyl)-4-((1-(3,4-dichlorobenzoyl)piperidin-4-yl)methoxy)-2-fluorobenzamide]",31
18,"C[C@@H](c1cc(Cl)cc(Cl)c1)N1CCC(F)(COc2cc(F)c(C(=O)NS(C)(=O)=O)cc2C2CC2)CC1 [Example 349, (S)-5-cyclopropyl-4-((1-(1-(3,5-dichlorophenyl)ethyl)-4-fluoropiperidin-4-yl)methoxy)-2-fluoro-N-(methylsulfonyl)benzamide, trifluoroacetic acid salt]",4
19,CS(=O)(=O)NC(=O)c1cc(C2CC2)c(OCC2(F)CCN(Cc3cc(C(F)(F)F)cc(C4CC4)n3)CC2)cc1F [Example 596],59.9
20,"CCS(=O)(=O)NC(=O)c1cc(C2CC2)c(OCC2CCN([C@@H](C)c3ccc(F)cc3Cl)CC2)cc1F (single isomer, unassigned) [Example 245]",7.9
21,"C[C@H]1CC[C@@H](Oc2cc(F)c(C(=O)NS(=O)(=O)N3CCC3)cc2C2CC2)CN1Cc1ccc(F)cc1Cl [Example 325, N-(azetidin-1-ylsulfonyl)-4-(((3R,6S)-1-(2-chloro-4-fluorobenzyl)-6-methylpiperidin-3-yl)oxy)-5-cyclopropyl-2-fluorobenzamide]",2.4
22,"CCS(=O)(=O)NC(=O)c1cc(C2CC2)c(OCC2(C)CN(c3ncc(Cl)cc3F)C2)cc1F [Example 484, 4-((1-(5-chloro-3-fluoropyridin-2-yl)-3-methylazetidin-3-yl)methoxy)-5-cyclopropyl-N-(ethylsulfonyl)-2-fluorobenzamide]",9.2
23,"C[C@@H](c1cc(Cl)cc(C(F)(F)F)c1)N1CCC(COc2cc(F)c(C(=O)NS(C)(=O)=O)cc2C2CC2)CC1 (single isomer, unassigned) [Example 277]",4
24,"CS(=O)(=O)NC(=O)c1cc(C2CC2)c(O[C@@H]2CCCN(S(C)(=O)=O)C2)cc1F [Example 314, (R)-5-cyclopropyl-2-fluoro-N-(methylsulfonyl)-4-((1-(methylsulfonyl)piperidin-3-yl)oxy)benzamide]",> 10000
25,"O=C(NS(=O)(=O)C1CC1)c1cc(Cl)c(OCC2CCN(Cc3cc(Cl)cc(OC(F)(F)F)c3)CC2)cc1F [Example 407, 5-chloro-4-((1-(3-chloro-5-(trifluoromethoxy)benzyl)piperidin-4-yl)methoxy)-N-(cyclopropylsulfonyl)-2-fluorobenzamide, trifluoroacetic acid salt]",6.7
26,"CCS(=O)(=O)NC(=O)c1cc(C2CC2)c(OCC2CCN(Cc3ccc(Cl)cc3Cl)CC2)cc1F [Example 213, 5-cyclopropyl-4-((1-(2,4-dichlorobenzyl)piperidin-4-yl)methoxy)-N-(ethylsulfonyl)-2-fluorobenzamide]",2.5

# Same assay, conditions: read-out: Ligand Binding Assay; 100 pM [3H]compound, membranes with hNav1.7 and β1 subunit, 18 h, room temperature; trifluoroacetic acid salt
row,Compound,IC50 [nM]
1,"CS(=O)(=O)NC(=O)c1cc(C2CC2)c(CN2[C@@H]3CC[C@H]2C[C@@H](Oc2ncc(C(F)(F)F)cc2Cl)C3)cc1F [Example 553, 4-(((1R,3r,5S)-3-((3-chloro-5-(trifluoromethyl)pyridin-2-yl)oxy)-8-azabicyclo[3.2.1]octan-8-yl)methyl)-5-cyclopropyl-2-fluoro-N-(methylsulfonyl)benzamide, trifluoroacetic acid salt]",6.1

# — patent publication US9546164B2 (GENENTECH, INC., priority 2013, dated 2017)
